We go through eleven molecules from patent US9096560B2, “5-heterocyclylalkyl-3-hydroxy-2-phenylcyclopent-2-enones as herbicides” (Syngenta Limited, priority 2008, dated 2015).

Holding throughout (assay type): in vivo
Experiment [1] concerns Lolium perenne (LOLPE). As to the kind of experiment: Example B pre-emergence herbicidal test, LOLPE. The settings on record: Lolium perenne, 312 h, rate 250 g/ha, evaluated after 13 days, 100=total damage to plant, 0=no damage to plant. The gist of the method:
(§1)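 Plants were rated 13 days after treatment, 0 = no damage to 100 = total damage. They were grown in a glasshouse at 24/16 °C, 14 h light, 65% humidity and watered twice daily. Pre-emergence spray was applied one day after sowing, formulated in acetone/water 50:50 with 0.5% Tween 20.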

In experiment [2] the test system is Alopecurus myosuroides (ALOMY). As to the kind of experiment: Example B pre-emergence herbicidal test, ALOMY. The settings on record: Alopecurus myosuroides, 312 h, rate 250 g/ha, evaluated after 13 days, 100=total damage to plant, 0=no damage to plant. The gist of the method: as §1
Experiment [3] concerns Echinochloa crus-galli (ECHCG). Kind of experiment: Example B pre-emergence herbicidal test, ECHCG. The settings on record: Echinochloa crus-galli, 312 h, rate 250 g/ha, evaluated after 13 days, 100=total damage to plant, 0=no damage to plant. The gist of the method:
as §1

For experiment [4], the system named is Avena fatua (AVEFA). As to the kind of experiment: Example B pre-emergence herbicidal test, AVEFA. The settings on record: Avena fatua, 312 h, rate 250 g/ha, evaluated after 13 days, 100=total damage to plant, 0=no damage to plant. The gist of the method:
as §1

Experiment [5] has as its system Avena fatua (AVEFA). As to the kind of experiment: Example B post-emergence herbicidal test, AVEFA. The settings on record: Avena fatua, 312 h, rate 250 g/ha, evaluated after 13 days, scale 0-100, read-out: Post-emergence activity AVEFA (100=total damage to plant; 0=no damage to plant). The gist of the method:
(§2)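 Plants grown from seed in standard soil for 8 days in a glasshouse (24/16 °C day/night, 14 h light, 65% humidity), then sprayed with an aqueous solution from the active ingredient formulated in acetone/water (50:50) with 0.5% Tween 20. Damage scored after 13 days, 0 (none) to 100 (total).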

The test system of experiment [6] is Echinochloa crus-galli (ECHCG). Kind of experiment: Example B post-emergence herbicidal test, ECHCG. The settings on record: Echinochloa crus-galli, 312 h, rate 250 g/ha, evaluated after 13 days, scale 0-100, read-out: Post-emergence activity ECHCG (100=total damage to plant; 0=no damage to plant). The gist of the method:
as §2

Experiment [7] has as its system Winter Wheat variety 'Hereward' seed treated with cloquintocet mexyl. As to the kind of experiment: Example C crop damage test on Winter Wheat seed treated with safener cloquintocet mexyl, post-emergence. As to conditions: rate 250 g/ha, seed treated with cloquintocet mexyl 0.5 grams per kilogram of dry seed, evaluated after 13 days. The procedure: Seeds of the Winter Wheat variety ‘Hereward’ were seed treated with a wettable powder formulation of the cereal herbicide safener, cloquintocet mexyl, at a rate of 0.5 grams per kilogram of dry seed prior to the initiation of glasshouse testing. One seed was sown per 1.5 inch plastic pot into a sandy loam soil at a depth of 1 cm, 8 days prior to application of the test compounds and was watered and grown under controlled conditions in a glasshouse (at 24/16° C., day/night; 14 hours light; 65% humidity). The plants were sprayed Post-emergence with an aqueous spray solution derived from the formulation of the technical active ingredient in acetone/water (50:50) solution containing 0.5% Tween 20 (polyoxyethelyene sorbitan monolaurate, CAS RN 9005-64-5). The test plants were then grown in a glasshouse under controlled conditions in a glasshouse (at 24/16° C., day/night; 14 hours light; 65% humidity) and watered twice daily. After 13 days for pre and post-emergence, the test was evaluated (100=total damage to plant; 0=no damage to plant).

Experiment [8] has as its system Winter Wheat variety 'Hereward'. Kind of experiment: Example C crop damage test on Winter Wheat, post-emergence, no safener. As to conditions: Triticum aestivum, 312 h, rate 250 g/ha, evaluated after 13 days, read-out: Winter Wheat (Hereward) damage (100=total damage to plant; 0=no damage to plant). The procedure: Seeds of the Winter Wheat variety ‘Hereward’ were sown in standard soil in pots. After 8 days cultivation under controlled conditions in a glasshouse (at 24/16° C., day/night; 14 hours light; 65% humidity), the plants were sprayed with an aqueous spray solution derived from the formulation of the technical active ingredient in acetone/water (50:50) solution containing 0.5% Tween 20 (polyoxyethelyene sorbitan monolaurate, CAS RN 9005-64-5). The test plants were then grown in a glasshouse under controlled conditions in a glasshouse (at 24/16° C., day/night; 14 hours light; 65% humidity) and watered twice daily. After 13 days for pre and post-emergence, the test was evaluated (100=total damage to plant; 0=no damage to plant).

Experiment [9] relates to Alopecurus myosuroides (ALOMY). As to the kind of experiment: Example B post-emergence herbicidal test, ALOMY. As to conditions: Alopecurus myosuroides, 312 h, rate 250 g/ha, evaluated after 13 days, scale 0-100, read-out: Post-emergence activity ALOMY (100=total damage to plant; 0=no damage to plant). The gist of the method: as §2
Experiment [10] relates to Lolium perenne (LOLPE). As to the kind of experiment: Example B post-emergence herbicidal test, LOLPE. The settings on record: Lolium perenne, 312 h, rate 250 g/ha, evaluated after 13 days, scale 0-100, read-out: Post-emergence activity LOLPE (100=total damage to plant; 0=no damage to plant). The gist of the method: as §2

With `CCCOC(=O)OC1=C(c2c(C)cc(C)cc2C)C(=O)C(CC2CCOC2)C1` (centres unmarked) [Compound P20], the pest or weed control at 250 g/ha in the experiment on Lolium perenne (LOLPE) [1] is 100%; in experiment [2], 100%; in experiment [3], 80%; in the experiment on Avena fatua (AVEFA) [4], 90%; with Avena fatua (AVEFA) [5], 90%; in experiment [6] it was 100%. Moreover, the pest or weed control at 250 g/ha (in experiment [9]; in the experiment on Lolium perenne (LOLPE) [10]) was 100% in each case. Further, in experiment [7], the “Winter Wheat (Hereward) + cloquintocet mexyl damage (100=total damage to plant; 0=no damage to plant)” value was determined as 0. Also, the crop damage to winter wheat at 250 g/ha in experiment [8] is 40%.
`Cc1cc(C)c(C2=C(OC(=O)OC(C)C)CC(CC3CCOCC3)C2=O)c(C)c1` (centres unmarked) [Compound P43]: the pest or weed control at 250 g/ha in the experiment on Lolium perenne (LOLPE) [1] was 100%; in experiment [2], 100%; in experiment [3], 100%; in the experiment on Avena fatua (AVEFA) [4] it was 100%; with Avena fatua (AVEFA) [5], 90%; in [6] it was 100%. Besides, the pest or weed control at 250 g/ha (in experiment [9]; in the experiment on Lolium perenne (LOLPE) [10]) was 100% each time. Besides, the “Winter Wheat (Hereward) + cloquintocet mexyl damage (100=total damage to plant; 0=no damage to plant)” value in experiment [7] is reported as 40. The crop damage to winter wheat at 250 g/ha in [8] was 50%.
As for `Cc1cc(C)c(C2=C(OC(=O)c3ccccc3)CC(CC3CCOCC3)C2=O)c(C)c1` (centres unmarked) [Compound P44], the pest or weed control at 250 g/ha was 100% in the experiment on Lolium perenne (LOLPE) [1]; 100% in experiment [2]; 100% in experiment [3]; 90% in the experiment with Avena fatua (AVEFA) [4]; 100% with Avena fatua (AVEFA) [5]; 100% in [6]. For the same molecule, the pest or weed control at 250 g/ha (in experiment [9]; with Lolium perenne (LOLPE) [10]) was 100% throughout. Also, the “Winter Wheat (Hereward) + cloquintocet mexyl damage (100=total damage to plant; 0=no damage to plant)” value in experiment [7] was determined as 40. Also, in experiment [8], the crop damage to winter wheat at 250 g/ha was 70%.
`CON1CCC(CC2CC(OC(=O)OC(C)C)=C(c3c(C)cc(C)cc3C)C2=O)CC1` (centres unmarked) [Compound P56]: the pest or weed control at 250 g/ha with Lolium perenne (LOLPE) [1] was found to be 100%; in experiment [2], 100%; in experiment [3], 100%; in the experiment with Avena fatua (AVEFA) [4] it was 90%; in the experiment with Avena fatua (AVEFA) [5], 100%; in experiment [6] it was 90%. Further, the pest or weed control at 250 g/ha in [9] stood at 90%; in the experiment on Lolium perenne (LOLPE) [10], 100%. Further, the “Winter Wheat (Hereward) + cloquintocet mexyl damage (100=total damage to plant; 0=no damage to plant)” value in experiment [7] is 60. Further, the crop damage to winter wheat at 250 g/ha in experiment [8] was 90%.
On to `Cc1cc(C)c(C2C(=O)C/C(=C\C3CCS(=O)(=O)CC3)C2=O)c(C)c1` (centres unmarked) [Compound T10], for which the pest or weed control at 250 g/ha in the experiment with Lolium perenne (LOLPE) [1] is 90%; in experiment [2] it was 70%; in [3], 70%; with Avena fatua (AVEFA) [4], 40%; with Avena fatua (AVEFA) [5] it was 80%; in experiment [6], 80%. The pest or weed control at 250 g/ha (in [9]; with Lolium perenne (LOLPE) [10]) was 70% each time. In experiment [7], the “Winter Wheat (Hereward) + cloquintocet mexyl damage (100=total damage to plant; 0=no damage to plant)” value was 20. In addition, in [8], the crop damage to winter wheat at 250 g/ha amounted to 60%.
In the case of `CCc1cc(C)cc(CC)c1C1C(=O)C(CC2CCOCC2)C(CC2CCOCC2)C1=O` (centres unmarked) [Compound T12], the pest or weed control at 250 g/ha (with Lolium perenne (LOLPE) [1]; in [2]; in experiment [3]; with Avena fatua (AVEFA) [4]; in the experiment with Avena fatua (AVEFA) [5]; in experiment [6]) was 100% each time. In addition, the pest or weed control at 250 g/ha (in experiment [9]; with Lolium perenne (LOLPE) [10]) was 100% each time. Further, the “Winter Wheat (Hereward) + cloquintocet mexyl damage (100=total damage to plant; 0=no damage to plant)” value in [7] stood at 60. Moreover, the crop damage to winter wheat at 250 g/ha in experiment [8] amounted to 70%.
Turning to `Cc1cc(C)c(C2C(=O)C/C(=C\C3CCCOC3)C2=O)c(C)c1` (centres unmarked) [Compound T14], the pest or weed control at 250 g/ha (with Lolium perenne (LOLPE) [1]; in experiment [2]; in experiment [3]; with Avena fatua (AVEFA) [4]; in the experiment on Avena fatua (AVEFA) [5]; in experiment [6]) was 100% throughout. Also, the pest or weed control at 250 g/ha (in [9]; in the experiment with Lolium perenne (LOLPE) [10]) was 100% each time. Also, the “Winter Wheat (Hereward) + cloquintocet mexyl damage (100=total damage to plant; 0=no damage to plant)” value in experiment [7] turned out to be 60. The crop damage to winter wheat at 250 g/ha in [8] was 80%.
Consider `Cc1cc(C)c(C2C(=O)CC(CC3CCCOC3)C2=O)c(C)c1` (centres unmarked) [Compound T16], for which the pest or weed control at 250 g/ha in the experiment with Lolium perenne (LOLPE) [1] turned out to be 100%; in experiment [2], 100%; in [3], 100%; in the experiment on Avena fatua (AVEFA) [4], 80%; in the experiment with Avena fatua (AVEFA) [5], 100%; in experiment [6] it was 100%. The pest or weed control at 250 g/ha (in experiment [9]; in the experiment on Lolium perenne (LOLPE) [10]) was 100% throughout. Further, the “Winter Wheat (Hereward) + cloquintocet mexyl damage (100=total damage to plant; 0=no damage to plant)” value in [7] is listed as 20. In addition, the crop damage to winter wheat at 250 g/ha in [8] was found to be 80%.
In the case of `Cc1cc(C)c(C2C(=O)C/C(=C\C3CCOC3)C2=O)c(C)c1` (centres unmarked) [Compound T17], the pest or weed control at 250 g/ha (in the experiment with Lolium perenne (LOLPE) [1]; in experiment [2]; in experiment [3]; with Avena fatua (AVEFA) [4]; in the experiment on Avena fatua (AVEFA) [5]; in experiment [6]) was 100% each time. Further, the pest or weed control at 250 g/ha in experiment [9] turned out to be 90%; in the experiment on Lolium perenne (LOLPE) [10], 100%. For the same molecule, the “Winter Wheat (Hereward) + cloquintocet mexyl damage (100=total damage to plant; 0=no damage to plant)” value in experiment [7] turned out to be 50. Besides, the crop damage to winter wheat at 250 g/ha in experiment [8] came out at 70%.
Regarding `Cc1cc(C)c(C2C(=O)C/C(=C\C3CCOC(C)(C)C3)C2=O)c(C)c1` (centres unmarked) [Compound T37], the pest or weed control at 250 g/ha with Lolium perenne (LOLPE) [1] was 100%; in [2], 100%; in experiment [3], 100%; with Avena fatua (AVEFA) [4], 90%; with Avena fatua (AVEFA) [5] it was 100%; in experiment [6], 100%. For the same molecule, the pest or weed control at 250 g/ha came out at 90% in [9] and 100% in the experiment with Lolium perenne (LOLPE) [10]. The “Winter Wheat (Hereward) + cloquintocet mexyl damage (100=total damage to plant; 0=no damage to plant)” value in [7] turned out to be 70. Besides, in experiment [8], the crop damage to winter wheat at 250 g/ha turned out to be 80%.
Turning to `Cc1cc(C)c(C2C(=O)CC(CC3CCOC(C)(C)C3)C2=O)c(C)c1` (centres unmarked) [Compound T39], the pest or weed control at 250 g/ha (with Lolium perenne (LOLPE) [1]; in experiment [2]; in [3]; in the experiment on Avena fatua (AVEFA) [4]; in the experiment on Avena fatua (AVEFA) [5]; in experiment [6]) was 100% each time. In addition, the pest or weed control at 250 g/ha in [9] was 90%; with Lolium perenne (LOLPE) [10], 100%. Besides, the “Winter Wheat (Hereward) + cloquintocet mexyl damage (100=total damage to plant; 0=no damage to plant)” value in [7] stood at 70. Besides, the crop damage to winter wheat at 250 g/ha in [8] was 80%.
